Where two headings read alike, the source gives them in different places.
How the values were obtained:
[1] = test system: wild type fourth-stage C. elegans larvae (L4s); assay: Locomotory defects (coiled and/or paralysis) in wild type fourth-stage C. elegans larvae on solid substrate; assay type: in vivo, Caenorhabditis elegans; settings: for Activity (%): percent of animals that show coiled and/or paralysis: 60 μM, after 60 min on solid substrate, L4 C. elegans
Procedure: A preliminary first round of SAR analyses using analogs of exemplary compound Ia was performed and the analogs' ability to induce locomotory defects in wild type fourth-stage C. elegans larvae (L4s) was tested.
If phenotype is observed, a dose-response analysis is performed.

[2] = test system: L3 animals; assay: Abnormal locomotory behaviour of L3 animals on solid agar (extended SAR); assay type: in vivo, Caenorhabditis elegans; settings: for pest or weed control at 3.75 µM / pest or weed control at 15 µM / pest or weed control at 60 µM: Caenorhabditis elegans
Procedure: 20 animals were scored after either 1, 6 or 24 hours of exposure to drug (as indicated) per replicate. […] Data are reported as the mean % of animals with abnormal phenotype over 4 independent replicates.

[3] = test system: wild type C. elegans; assay: Manual monitoring of locomotion phenotype of wild type C. elegans on solid agar containing the small molecule; assay type: in vivo, Caenorhabditis elegans
Text: The ability of the 64 Egl hits to modulate the normal sinusoidal locomotion of wild type C. elegans was then examined. The animal's behaviour over the course of several hours was manually monitored while the animal moved atop a solid agar substrate containing the small molecule. Many different genes govern the sinusoidal locomotion of wild type C. elegans, but their mutation can lead to qualitatively distinct locomotory phenotypes.

[4] = test system: UNC-17 (VAChT), unc-17 mutant strains; assay type: in vivo, Caenorhabditis elegans; settings: p=0.001
[5] = test system: HEK293 cells; assay: HEK293 cell proliferation, Celltiter Blue Cell Viability Assay; assay type: cell-based; settings: dose-response, 48 hours, triplicates
Procedure: A cytotoxic formulation was used as positive control. Experiments were performed in triplicates on different days. […] Error bars indicate standard deviation.

[6] = test system: C. elegans; assay: Suppression of aldicarb-induced paralysis in C. elegans; assay type: in vivo; settings: Caenorhabditis elegans
Procedure: Whether exemplary compound Ia can suppress the paralysis that is induced by aldicarb was tested. Aldicarb inhibits acetylcholinesterase, which normally catabolizes ACh at the synaptic cleft. […] Aldicarb treatment therefore results in excess ACh and paralyzes the animal due to excess muscle contraction. If exemplary compound Ia inhibits UNC-17 and results in lower levels of ACh at the synaptic cleft, then exemplary compound Ia should reduce aldicarb-induced paralysis.

[7] = test system: fish; assay: Dose-response analysis in fish, cardiac defects; assay type: in vivo
[8] = 1 h, read-out: % any phene 1 h (conc.) 3.75
[9] = 1 h, read-out: % any phene 1 h (conc.) 15
[10] = 1 h, read-out: % any phene 1 h (conc.) 60
[11] = 6 h, read-out: % any phene 6 h (conc.) 3.75
[12] = 6 h, read-out: % any phene 6 h (conc.) 15
[13] = 6 h, read-out: % any phene 6 h (conc.) 60
[14] = 24 h, read-out: % any phene 24 h (conc.) 3.75
[15] = 24 h, read-out: % any phene 24 h (conc.) 15
[16] = 24 h, read-out: % any phene 24 h (conc.) 60
[17] = 3.75 uM, 1 h exposure, L3, mean of 4 replicates
[18] = 3.75 uM, 6 h exposure, L3, mean of 4 replicates
[19] = 3.75 uM, 24 h exposure, L3, mean of 4 replicates
[20] = 15 uM, 1 h exposure, L3, mean of 4 replicates
[21] = 15 uM, 6 h exposure, L3, mean of 4 replicates
[22] = 15 uM, 24 h exposure, L3, mean of 4 replicates
[23] = 60 uM, 1 h exposure, L3, mean of 4 replicates
[24] = 60 uM, 6 h exposure, L3, mean of 4 replicates
[25] = 60 uM, 24 h exposure, L3, mean of 4 replicates
[26] = 3.75 uM, 1 h exposure, L3, mean of 4 replicates, read-out: % any phene 1 h (conc.) 3.75
[27] = 3.75 uM, 6 h exposure, L3, mean of 4 replicates, read-out: % any phene 6 h (conc.) 3.75
[28] = 3.75 uM, 24 h exposure, L3, mean of 4 replicates, read-out: % any phene 24 h (conc.) 3.75
[29] = 15 uM, 1 h exposure, L3, mean of 4 replicates, read-out: % any phene 1 h (conc.) 15
[30] = 15 uM, 6 h exposure, L3, mean of 4 replicates, read-out: % any phene 6 h (conc.) 15
[31] = 15 uM, 24 h exposure, L3, mean of 4 replicates, read-out: % any phene 24 h (conc.) 15
[32] = 60 uM, 1 h exposure, L3, mean of 4 replicates, read-out: % any phene 1 h (conc.) 60
[33] = 60 uM, 6 h exposure, L3, mean of 4 replicates, read-out: % any phene 6 h (conc.) 60
[34] = 60 uM, 24 h exposure, L3, mean of 4 replicates, read-out: % any phene 24 h (conc.) 60

Structure (SMILES)	Activity (%): percent of animals that show coiled and/or paralysis [1]	pest or weed control at 3.75 µM [2, 8] [%]	pest or weed control at 15 µM [2, 9] [%]	pest or weed control at 60 µM [2, 10] [%]	pest or weed control at 3.75 µM [2, 11] [%]	pest or weed control at 15 µM [2, 12] [%]	pest or weed control at 60 µM [2, 13] [%]	pest or weed control at 3.75 µM [2, 14] [%]	pest or weed control at 15 µM [2, 15] [%]	pest or weed control at 60 µM [2, 16] [%]	% any phene 1 h (conc.) 3.75 [2, 17] [%]	% any phene 6 h (conc.) 3.75 [2, 18] [%]	% any phene 24 h (conc.) 3.75 [2, 19] [%]	% any phene 1 h (conc.) 15 [2, 20] [%]	% any phene 6 h (conc.) 15 [2, 21] [%]	% any phene 24 h (conc.) 15 [2, 22] [%]	% any phene 1 h (conc.) 60 [2, 23] [%]	% any phene 6 h (conc.) 60 [2, 24] [%]	% any phene 24 h (conc.) 60 [2, 25] [%]	other results
CC1CCC(N2CCN(c3ccc([N+](=O)[O-])cc3)CC2)CC1 (stereo not shown) [Ib]	87% +/− 3.7	3.3	97.5	100	0	93.3	100	0	73.3	100	–	–	–	–	–	–	–	–	–	–
O[C@@H]1CCCC[C@H]1N1CCC(c2ccccc2)CC1 (racemic) [Vesamicol, reference compound]	6% +/− 0.1	0	0	11.7	0	0.8	1.7	0	0	0	–	–	–	–	–	–	–	–	–	locomotory phenotype induced ([3]; solid agar substrate): jerky-unc and coiling, but only at concentrations close to its limit of solubility; sensitivity of unc-17(md414) (C370Y) mutant [4]: partially resistant
O=[N+]([O-])c1ccc(N2CCN(Cc3ccccc3)CC2)cc1 [Im]	0.00%	–	–	–	–	–	–	–	–	–	0.0	0.0	0.0	7.5	3.3	0.0	44.2	30.8	0.0	–
O=[N+]([O-])c1ccc(N2CCN(CC3CC3)CC2)cc1 [Iq]	6% +/− 3.2	–	–	–	–	–	–	–	–	–	0.0	5.0	0.0	4.2	29.2	0.0	32.5	36.7	4.2	–
O=[N+]([O-])c1ccc(N2CCN(CC3CCCCC3)CC2)cc1 [Compound Ia]	90% +/− 5.4	42.5	91	100	22.5	64.2	100	0	34.2	80	–	–	–	–	–	–	–	–	–	EC50 ([1]; Caenorhabditis elegans, read-out: EC50 (coiled and/or paralysis, dose-response)): 12.8 µM; effect on HEK293 cell proliferation [5]: no effect; EC50 [6]: 4.81 µM; potency for inducing locomotory defects in worms relative to vesamicol ([3]; compared with vesamicol): more than 30 times; cardiac defects in fish [7]: weakest cardiac defects
N#Cc1ccc(N2CCN(CC3CCCCC3)CC2)cc1 [Ik]	61% +/− 5.0	–	–	–	–	–	–	–	–	–	8.3	15.0	0.0	45.8	37.5	23.3	91.7	98.3	100.0	–
c1ccc(N2CCN(CC3CCCC3)CC2)cc1 [Ihh]	–	–	–	–	–	–	–	–	–	–	–	–	–	–	–	–	–	–	–	pest or weed control at 3.75 µM [2, 26]: 4.2%; pest or weed control at 3.75 µM [2, 27]: 0%; pest or weed control at 3.75 µM [2, 28]: 0%; pest or weed control at 15 µM [2, 29]: 70%; pest or weed control at 15 µM [2, 30]: 1.7%; pest or weed control at 15 µM [2, 31]: 0%; pest or weed control at 60 µM [2, 32]: 100%; pest or weed control at 60 µM [2, 33]: 53.3%; pest or weed control at 60 µM [2, 34]: 5%
c1ccc(N2CCN(C3CCCCCCC3)CC2)cc1 [Icc]	–	–	–	–	–	–	–	–	–	–	–	–	–	–	–	–	–	–	–	pest or weed control at 3.75 µM [2, 26]: 46.7%; pest or weed control at 3.75 µM [2, 27]: 0%; pest or weed control at 3.75 µM [2, 28]: 0%; pest or weed control at 15 µM [2, 29]: 93.3%; pest or weed control at 15 µM [2, 30]: 0.8%; pest or weed control at 15 µM [2, 31]: 0%; pest or weed control at 60 µM [2, 32]: 100%; pest or weed control at 60 µM [2, 33]: 33.3%; pest or weed control at 60 µM [2, 34]: 0%
